Assay results reported in US9770451B2, “Composition including ATM inhibitor for reducing cellular senescence and use of the composition” (Samsung Electronics Co., Ltd., priority 2014, dated 2017).

Experiments:
[1] = tested on: progeria senescent fibroblasts (passage 17); test: SA-β-galactosidase staining; type: cell-based, human; conditions: CP-466722 0.1 μM, 4 weeks
[2] = tested on: progeria senescent fibroblasts (passage 17); test: DNA comet assay; type: cell-based, human; conditions: CP-466722 0.1 μM, 4 weeks
Protocol: To determine the extent of recovery of the senescent cells to the DNA damage in accordance with the ATM-kinase inhibitor, the DNA comet assay (Trevigen, 4250-050-K) was carried out according to the protocol of the manufacturer. The principle of the DNA comet assay is based on gel electrophoresis. The damaged DNA moves farther away in the electrophoresis process than the undamaged DNA, resulting in the formation of a comet-tail shape. Afterwards, a slide used herein was stained with cyber green (SYBR Green), so that the tail length of the DNA fragment was measured by using fluorescence microscopy to confirm the extent of the DNA damage. The extent of the DNA damage may be measured as a tail moment value obtained by multiplying tail DNA % by the distance of migration of DNA fragmentation from the nucleus or the tail length. […]
To determine the extent of recovery of the senescent cells to the DNA damage in accordance with the ATM-kinase inhibitor, the DNA comet assay (Trevigen, 4250-050-K) was carried out according to the protocol of the manufacturer. […] Afterwards, a slide used herein was stained with cyber green (SYBR Green), so that the tail length of the DAN fragment was measured by using fluorescence microscopy to confirm the extent of the DNA damage. […]

COc1cc2ncnc(-n3nc(-c4ccccn4)nc3N)c2cc1OC [CP-466722, 2-(6,7-dimethoxyquinazolin-4-yl)-5-(pyridin-2-yl)-2H-1,2,4-triazol-3-amine]
number of cells that express β-galactosidase vs DMSO control [1]: significantly decreased | DNA damage (tail moment) vs DMSO control [2]: significantly decreased
